Assay [1] has as its system Plasmopara viticola. The assay is described as follows: In vitro bioassay in 96-well plates, minimal inhibitory concentration (MIC100). Format: cell-based. The note with it: for MIC: Plasmopara viticola, read-out: Minimal inhibitory concentration (MIC100) against P. viticola.
The subject of assay [2] is Phytophthora infestans. The assay is described as follows: microbe, parasite or virus in culture. The note with it: complete inhibition of germination, assessed after one day, Table 2 values are means of N independent experiments; for MIC: Phytophthora infestans, 24 h, read-out: Minimal inhibitory concentration (MIC100) against P. infestans, in vitro; for Minimal inhibitory concentration (MIC100) against P. infestans: in vitro. Format: cell-based.

Assay [3] has as its system Venturia inaequalis. The assay is described as follows: In vitro bioassay in 96-well plates, minimal inhibitory concentration (MIC100). Format: cell-based. The note with it: for MIC: Venturia inaequalis, 48 h, read-out: Minimal inhibitory concentration (MIC100) against V. inaequalis.
Assay [4] deals with Venturia inaequalis. The assay is described as follows: Plant-pathogen bioassay on apple seedlings under semi-controlled conditions. The class given is in vivo. The note with it: apple cv. Jonagold seedlings, n = 6, Table 7.
The subject of assay [5] is Plasmopara viticola. Description: Plant-pathogen bioassay on grapevine seedlings under semi-controlled conditions. Format: in vivo. The note with it: grapevine cv. Chasselas seedlings, n = 6, Table 5.
Where [6] appears, read: in vitro, complete inhibition of zoospore activity, assessed after 2-3 h, Table 2 values are means of N independent experiments.
Where [7] appears, read: in vitro, complete inhibition of germination, assessed after two days, Table 2 values are means of N independent experiments.

In brackets after ≈: the same amount, converted by molar mass. Where two headings read alike, the source gives them in different places.

Take `O=C(/C=C/c1ccccc1)OCc1ccccc1` [BC, benzyl cinnamate]: the results for the MIC in assay [1], in assay [2] and in assay [3] were 8 µg/mL (≈ 33.6 µM), 500 µg/mL (≈ 2100 µM) and over 500 µg/mL, respectively.

As to `COc1cc(/C=C/COC(=O)c2ccccc2)ccc1O` [CB, coniferyl benzoate], the MIC in assay [1] (setting [6]) lay within 8 to 32 µg/mL (≈ 28.1 to 113 µM). For the same compound, the “Minimal inhibitory concentration (MIC100) against P. viticola” value in assay [1] (setting [6]) stood at 12 µg/mL (≈ 42.2 µM). In assay [2], the “Minimal inhibitory concentration (MIC100) against P. infestans” value came out at 21 µg/mL (≈ 73.9 µM). The “Efficacy Mean ± SD” value in assay [4] (CB 0.1 mg ml^−1) amounted to 4 ± 53%; in assay [4] (CB 1 mg ml^−1), 69 ± 12%; in assay [4] (CB 1 mg ml^−1, listed as coniferyl benzoate) it was 70%. For the same compound, the “Minimal inhibitory concentration (MIC100) against V. inaequalis” value in assay [3] (setting [7]) came out at 35 µg/mL (≈ 123 µM). In addition, the “Efficacy against P. viticola, mean ± SD” value in assay [5] (pure compound 0.25 mg ml^−1) is 85 ± 14%; in assay [5] (pure compound 0.5 mg ml^−1), 77 ± 50%; in assay [5] (pure compound 1 mg ml^−1), 99 ± 1%.

As for `O=C(/C=C/c1ccccc1)OC/C=C/c1ccc(O)cc1` [CC, p-coumaryl cinnamate], the “Minimal inhibitory concentration (MIC100) against P. viticola” value in assay [1] (setting [6]) is 38 µg/mL (≈ 136 µM). In addition, the MIC in assay [2] and in assay [3] (setting [7]) was 16 to 64 µg/mL (≈ 57.1 to 228 µM) in each case. Further, the “Minimal inhibitory concentration (MIC100) against P. infestans” value in assay [2] was found to be 25 µg/mL (≈ 89.2 µM). The “Minimal inhibitory concentration (MIC100) against V. inaequalis” value in assay [3] (setting [7]) was 32 µg/mL (≈ 114 µM). For the same compound, the figures for the “Efficacy against P. viticola, mean ± SD” value in assay [5] (pure compound 0.25 mg ml^−1), in assay [5] (pure compound 0.5 mg ml^−1) and in assay [5] (pure compound 1 mg ml^−1) were 80 ± 16%, 95 ± 6% and 98 ± 1%, respectively.

(Values after US10869474B2, “Fungicidal compositions” (UNIVERSITÄT BASEL, priority 2016, dated 2020).)
